Measurements reported in publication PMC10776879, “In vitro screening of topical formulation excipients for epithelial toxicity in cancerous and non-cancerous cell lines” (EXCLI Journal, 2023).
≈ marks a conversion by molar mass, not a printed value.

Experiments:
[1] = tested on: primary skin fibroblasts (FB); experiment: MTT cell viability assay; assay type: cell-based, human; conditions: Homo sapiens, Skin fibroblast, 24 h exposure, read-out: IC50 (μg/ml) [Mean, Range] FB, MTT
Description: (§1) Cells were seeded into the 96-well cell culture plates in 100 μl of complete culture medium at the initial density of 2x10^4 (cells/ml). Cells were incubated under 5 % CO2 at 37 °C for 24 hours for adhering to the wells and medium was then replaced with 100 μl of fresh medium containing excipient solution at the required final concentration. Each concentration was tested in minimum of 5 replicates and control cells were exposed to the culture medium only.
(§2) After cell incubation for 24 h, the excipient-containing medium was removed, and 100 μl of MTT in PBS (5 mg/ml) diluted 1:10 in medium was then added in the dark. Plates were further incubated for 2-3 h, after which time the medium was removed and the purple formazan product was dissolved by adding 200 μl of DMSO to each well. Plates were then placed in a shaker for 5 min at room temperature and the absorbance of the resulting solutions was measured at 570 nm using a microplate reader (Multiskan™ FC Microplate Photometer). The effect of each treatment was calculated as the percentage of tetrazolium salt reduction by viable cells against the negative control (cells treated with culture medium only).
(§3) To assess the excipients' cytotoxicity, the dose-response effect of each excipient was measured against the cell lines. The cytotoxicity value for each concentration of the excipients was expressed as percentage of viability against the untreated control wells (the optical density of untreated cells was set at 100 % viability) to construct dose-response curves.
(§4) All IC50 values were expressed as µg/ml. The percentage viability was calculated as follows: […]

[2] = Table 1, physicochemical information of the excipients, source not given; cited from earlier work
[3] = tested on: WM164 human melanoma cells; experiment: Reactive Oxygen Species evaluation with dihydrorhodamine 123; assay type: cell-based; conditions: greatest applied concentration, 24 h
Description: (§5) The oxidant-sensitive dye, dihydrorhodamine 123 (DHR), was used to detect intracellular ROS level. Cells were plated in the flat bottom 96-well plates to sub confluent (60-70 %) then the medium was removed and replaced with the pre-warmed treatment solutions (medium containing different concentration of the excipients). After 24 hours incubation with treatment solutions, medium was removed and replaced with the 100 μl of pre-warmed dying buffer (Hank's balanced salt solution (HBSS) containing 12 µM DHR dye). Cells were incubated for 30 minutes at 37 °C in a humidified 5 % CO2 atmosphere in dark. The cellular fluorescence generated by the DHR oxidation was measured at 485 nm (OD 485) using a microplate reader (Multiskan™ FC Microplate Photometer). Hydrogen peroxide (H2O2) treatment (800, 400, 200, and 100 µM)/ (27, 13.5, 6.75, 3.4 µg/ml) was used as positive control and dying buffer with no cells as blank control. Data points were recorded every 10 minutes for 60 minutes and exported for analysis by Excel software. The ROS level is calculated as the difference between (Ftest/ Fcontrol) and expressed as percentages of the control value using this formulation: […]
(§6) where Ftest and Fcontrol are the fluorescence intensities of the cells exposed to the treatments and the cells with only medium, respectively. Fluorescence intensity of the blank wells were measured at every measurement time points and recorded to compare with the control wells.

D24 human melanoma cells [4] = experiment: as above; assay type: cell-based; conditions: greatest applied concentration, 24 h
Description: as §5, §6

[5] = tested on: WM1366 human melanoma cells; experiment: as above; assay type: cell-based; conditions: greatest applied concentration, 24 h
Description: as §5, §6

[6] = tested on: HaCaT human keratinocytes; experiment: as above; assay type: cell-based; conditions: greatest applied concentration, 24 h
Description: as §5, §6

[7] = tested on: WM164 human melanoma cells; experiment: MTT cell viability assay; assay type: cell-based; conditions: Homo sapiens, 24 h exposure, read-out: IC50 (μg/ml) [Mean, Range] WM164, MTT
Description: as §1, §2, §3, §4

D24 human melanoma cells [8] = experiment: MTT cell viability assay; assay type: cell-based; conditions: Homo sapiens, 24 h exposure, read-out: IC50 (μg/ml) [Mean, Range] D24, MTT
Description: as §1, §2, §3, §4

[9] = tested on: WM1366 human melanoma cells; experiment: MTT cell viability assay; assay type: cell-based; conditions: Homo sapiens, 24 h exposure, read-out: IC50 (μg/ml) [Mean, Range] WM1366, MTT
Description: as §1, §2, §3, §4

[10] = tested on: HaCaT human keratinocytes; experiment: MTT cell viability assay; assay type: cell-based; conditions: Homo sapiens, 24 h exposure, read-out: IC50 (μg/ml) [Mean, Range] HaCaT, MTT
Description: as §1, §2, §3, §4

[11] = tested on: primary skin fibroblasts (FB); experiment: Reactive Oxygen Species evaluation with dihydrorhodamine 123; assay type: cell-based, human; conditions: greatest applied concentration, 24 h
Description: as §5, with “Hydrogen peroxide (H2O2) treatment (800, 400, 200, and 100 µM)/ (27, 13.5, 6.75, 3.4 µg/ml) was used as positive control and dying buffer with no cells as blank control.” left out
as §6

[12] = tested on: primary skin fibroblasts (FB); experiment: Crystal violet (CV) cell viability assay; assay type: cell-based, human; conditions: Homo sapiens, Skin fibroblast, 24 h exposure, read-out: IC50 (μg/ml) [Mean, Range] FB, CV
Description: (§7) Cells were seeded into the 96-well cell culture plates in 100 μl of complete culture medium at the initial density of 2x10^4 (cells/ml). Cells were incubated under 5 % CO2 at 37 °C for 24 hours for adhering to the wells and medium was then replaced with 100 μl of fresh medium containing excipient solution at the required final concentration. Each concentration was tested in minimum of 5 replicates and control cells were exposed to the culture medium only. Fixed cells were stained with crystal violet dye solution to screen cell viability under treatment conditions. Cells are fixed by 4 % (v/v) paraformaldehyde in PBS for 10 minutes. Crystal violet assay of 0.05 % (v/v) is prepared by 1:4 dilution of the crystal violet stock solution (v/v) in 4 % (v/v) paraformaldehyde. The fixed cells were washed twice with PBS and covered with 250 µl crystal violet working solution. The plates were placed on a bench rocker with medium frequency (20 oscillations per minute) at room temperature for 20 minutes. The plates were emptied and washed under indirect stream of tap water for three times and inverted on filter paper. The plates were taped gently on the paper to remove any remaining liquid and air dried with no lid for minimum of 2 hr at room temperature. After the plates were photographed, blue dye was dissolved in DMSO and the optical density of each well was measured at 570 nm (OD570) with a plate reader (Multiskan™ FC Microplate Photometer). The effect of each treatment was calculated as the percentage of crystal viable staining of surviving attached cells, against the negative control (cells treated with culture medium only). To assess the excipients' cytotoxicity, the dose-response effect of each excipient was measured against the cell lines. The cytotoxicity value for each concentration of the excipients was expressed as percentage of viability against the untreated control wells (the optical density of untreated cells was set at 100 % viability) to construct dose-response curves. […] All IC50 values were expressed as µg/ml. The percentage viability was calculated as follows: […]

[13] = tested on: human cervical cancer (HeLa) cells; set-up: method as in Ujhelyi et al., 2012[89], 2015[90]; conditions: HeLa cell line; ref Ujhelyi et al., 2012[89], 2015[90]; cited from earlier work
[14] = tested on: human cell lines (WM164, WM1366, D24, HaCaT, FB); experiment: MTT and CV cytotoxicity, statements over all tested cell lines; assay type: cell-based
Description: as §1, §2
Fixed cells were stained with crystal violet dye solution to screen cell viability under treatment conditions. Cells are fixed by 4 % (v/v) paraformaldehyde in PBS for 10 minutes. Crystal violet assay of 0.05 % (v/v) is prepared by 1:4 dilution of the crystal violet stock solution (v/v) in 4 % (v/v) paraformaldehyde. The fixed cells were washed twice with PBS and covered with 250 µl crystal violet working solution. The plates were placed on a bench rocker with medium frequency (20 oscillations per minute) at room temperature for 20 minutes. The plates were emptied and washed under indirect stream of tap water for three times and inverted on filter paper. The plates were taped gently on the paper to remove any remaining liquid and air dried with no lid for minimum of 2 hr at room temperature. After the plates were photographed, blue dye was dissolved in DMSO and the optical density of each well was measured at 570 nm (OD570) with a plate reader (Multiskan™ FC Microplate Photometer). The effect of each treatment was calculated as the percentage of crystal viable staining of surviving attached cells, against the negative control (cells treated with culture medium only).
as §3
The cytotoxicity of the excipients was expressed in terms of an IC50 values (concentration causing 50 % death of the cell population) (Goldberg and Frazier, 1989[37]). […] All IC50 values were expressed as µg/ml. The percentage viability was calculated as follows: […]

[15] = tested on: WM164 human melanoma cells; experiment: Crystal violet (CV) cell viability assay; assay type: cell-based; conditions: Homo sapiens, 24 h exposure, read-out: IC50 (μg/ml) [Mean, Range] WM164, CV
Description: as §7

D24 human melanoma cells [16] = experiment: Crystal violet (CV) cell viability assay; assay type: cell-based; conditions: Homo sapiens, 24 h exposure, read-out: IC50 (μg/ml) [Mean, Range] D24, CV
Description: as §7

[17] = tested on: WM1366 human melanoma cells; experiment: Crystal violet (CV) cell viability assay; assay type: cell-based; conditions: Homo sapiens, 24 h exposure, read-out: IC50 (μg/ml) [Mean, Range] WM1366, CV
Description: as §7

[18] = tested on: HaCaT human keratinocytes; experiment: Crystal violet (CV) cell viability assay; assay type: cell-based; conditions: Homo sapiens, 24 h exposure, read-out: IC50 (μg/ml) [Mean, Range] HaCaT, CV
Description: as §7

[19] = tested on: primary skin fibroblasts (FB); experiment: Trypan blue (TB) exclusion assay, membrane integrity; assay type: cell-based; conditions: Homo sapiens, Skin fibroblast, 24 h exposure, read-out: IC50 (μg/ml) FB, TB
Description: (§8) The dye exclusion test is routinely applied in laboratories to assess the number of live cells present in a cell suspension. […] In this assay a cell suspension is mixed with dye and then visualized to distinguish the cells that take up dye from the ones that exclude it. Viable cells will be seen as a clear cytoplasm whereas a dead cell will appear with a blue cytoplasm (Strober, 2001[86]). After cell incubation for 24 h, the excipient-containing medium was removed, and cells were trypsinized using trypsin-EDTA to obtain cell suspension. 20 µl of trypan blue dye was mixed thoroughly with 20 µl cell suspension by pipetting ups and downs and loaded into the cell counting slide. Cell numbers were detected by the automated cell counting machine. To find the total number of viable cells in one ml of aliquot, the number of viable cells was multiplied by 2 (the dilution factor for trypan blue). Viable cell percentage was calculated as follows: […]

[20] = tested on: WM164 human melanoma cells; experiment: as above; assay type: cell-based; conditions: 24 h exposure, read-out: IC50 (μg/ml) WM164, TB
Description: as §8

D24 human melanoma cells [21] = experiment: as above; assay type: cell-based; conditions: 24 h exposure, read-out: IC50 (μg/ml) D24, TB
Description: as §8

[22] = tested on: WM1366 human melanoma cells; experiment: as above; assay type: cell-based; conditions: 24 h exposure, read-out: IC50 (μg/ml) WM1366, TB
Description: as §8

[23] = tested on: HaCaT human keratinocytes; experiment: as above; assay type: cell-based; conditions: 24 h exposure, read-out: IC50 (μg/ml) HaCaT, TB
Description: as §8

For `CCOCCOCCO` [Transcutol®, diethylene glycol monoethyl ether], the IC50 [1] is given as 5.54 µg/mL (≈ 41.3 µM), the HLB [2] is given as 4 and the “ROS production increase vs untreated control” value (“ROS production increase” for short) [3] is given as 22.5%. The “ROS production increase” value (D24 human melanoma cells [4]) was 24.9%, the “ROS production increase” value [5] was 18.1% and the “ROS production increase” value [6] was 29.4%. For the same compound, the IC50 [7] was 2.12 µg/mL (≈ 15.8 µM), the IC50 (D24 human melanoma cells [8]) was 4.88 µg/mL (≈ 36.4 µM) and the IC50 [9] was 3.49 µg/mL (≈ 26 µM). The IC50 [10] was 3.32 µg/mL (≈ 24.7 µM), the “ROS production increase” value [11] was 4.3% and the IC50 [12] was 5.97 µg/mL (≈ 44.5 µM). The “IC50, MTT endpoint” value [13] was 34 µg/mL (≈ 253 µM), the IC50 ([14]; Homo sapiens, over the tested cell lines, this study, read-out: IC50) was 2 to 5.5 µg/mL (≈ 14.9 to 41 µM) and the Irritancy ranking ([14]; rank by MTT and CV IC50 over all cell lines, 1 = most cytotoxic) was 4. The IC50 [15] was 2.03 µg/mL (≈ 15.1 µM), the IC50 (D24 human melanoma cells [16]) was 5.01 µg/mL (≈ 37.3 µM) and the IC50 [17] was 3.55 µg/mL (≈ 26.5 µM). For the same compound, the IC50 [18] was 2.91 µg/mL (≈ 21.7 µM), the IC50 [19] was 7.08 µg/mL (≈ 52.8 µM) and the IC50 [20] was 14.6 µg/mL (≈ 108 µM). For the same compound, the IC50 (D24 human melanoma cells [21]) was 21.6 µg/mL (≈ 161 µM), the IC50 [22] was 13.7 µg/mL (≈ 102 µM) and the IC50 [23] was 6.57 µg/mL (≈ 49 µM).
